Values quoted from earlier work as cited in patent US20250205506A1, “Treatment of viral infection” (priority 2023, published 2025).

Tests used:
[1] = system: recurrent herpes labialis; conditions: for Reduction of healing time: tablets, otherwise healthy people
[2] = system: herpes zoster; conditions: intravenously administered; golden light (565 nm yellow + 630 nm red) or red light to the affected area
[3] = system: herpes infections; conditions: orally administered; red light from a HeNe laser

Structure (SMILES) | Reduction of healing time [1] | Combined effect with light compared to acyclovir alone [2] | Combined effect with red light compared to acyclovir alone [3] | Preventative treatment of herpes ([1]; taken once daily)
CC(=O)OCC(CCn1cnc2cnc(N)nc21)COC(C)=O [famciclovir] | reduce healing time by about one day |  |  | 
Nc1nc2c(ncn2COCCO)c(=O)[nH]1 [acyclovir, 9-(2-hydroxyethoxymethyl) guanine] | reduce healing time by about one day | improvement over acyclovir alone | improvements over acyclovir alone | 
CC(C)[C@H](N)C(=O)OCCOCn1cnc2c(=O)[nH]c(N)nc21 [valacyclovir] | reduce healing time by about one day |  |  | effective preventative treatment for herpes reducing frequency and severity of outbreaks
